Holding throughout (format): cell-based
The subject of data set [1] is pig HPRT. The experiment in a line: Dicer-substrate siRNA silencing in PK1 cells, qPCR of HPRT mRNA. Conditions: reverse transfection with RNAiMAX, 1 nM and 10 nM siRNA, 24 h, vs nontargeting control NC1. Here is the method: (§1) For airway epithelia that were either well or poorly differentiated, transfection was done mostly according to the manufacturer's protocol. In all cases, the apical surface of epithelia was washed twice with PBS before adding the transfection mixture to the apical surface. The mixture was then left on the cells for 24 h for all transfection reagents. For PK1 cells, reverse transfection was performed in a 48-well plate by first adding the siRNA-RNAiMAX reagent mixture onto the plate and then adding the dispersed cells (40,000 cells) on top of the mixture and allowing the cells to adhere and establish growth for 24 h. […]
(§2) Total RNA was isolated using SV96 RNA isolation kit (Promega), according to manufacturer's protocol. […] One-fifteenth of the cDNA was then amplified and analyzed by Taqman assay in the 7900 Real Time PCR System (Applied Biosystems) using synthesized primer-probe pairs (IDT, Coralville, Iowa), reaction buffer and Immolase DNA polymerase (Bioline, Taunton, Mass.). […] Absolute quantification of an mRNA target sequence within an unknown sample was determined by reference to a standard curve. […]
siRNAs were designed and synthesized to specifically target pig HPRT (ssHPRT) and IL-8 (IL-8 1098 and IL-8 1466). […] Quantitative real-time PCR was performed to measure the extent of mRNA reduction. […]
For orientation: Real-time PCR tracks product formation cycle by cycle.

For data set [2], the system named is HPRT mRNA. The experiment in a line: Pretreatment of well-differentiated human airway epithelia before HPRT siRNA transfection, qPCR. Conditions: for reduction in HPRT mRNA levels: 6 h drug pretreatment at Cmap or literature concentration, then siRNA-Transductin 24 h (data not shown); for decrease in HPRT mRNA levels: vs nontargeting controls (FIG. 5c). Here is the method: (§3) For airway epithelia that were either well or poorly differentiated, transfection was done mostly according to the manufacturer's protocol. In all cases, the apical surface of epithelia was washed twice with PBS before adding the transfection mixture to the apical surface. The mixture was then left on the cells for 24 h for all transfection reagents. For PK1 cells, reverse transfection was performed in a 48-well plate by first adding the siRNA-RNAiMAX reagent mixture onto the plate and then adding the dispersed cells (40,000 cells) on top of the mixture and allowing the cells to adhere and establish growth for 24 h. Before some transfections, pretreatment of cells with various chemicals were performed: Keratinocyte Growth Factor (KGF; Prospec, East Brunswick, N.J.) 50 ng/ml added both apically and basolaterally for 24 h; EGTA 6 mM added apically for 30 m; N-Acetyl-L-Leucyl-L-Leucyl-L-Norleucinal (LLnL; ICN Biochemicals, Inc, Costa Mesa, Calif.) 40 μM added both apically and basolaterally for 24 hrs; human Epidermal Growth Factor (EGF; Sigma-Aldrich, St. Louis, Mo.) 100 μg/ml, added apically for 15 m.
(§4) Total RNA was isolated using SV96 RNA isolation kit (Promega), according to manufacturer's protocol. Two hundred fifty ng of total RNA were reverse transcribed using oligo (dT) (Roche, Indianapolis, Ind.) and random hexamers (Invitrogen, Grand Island, N.Y.) and Superscript II (Invitrogen, Grand Island, N.Y.) according to manufacturer's instructions. One-fifteenth of the cDNA was then amplified and analyzed by Taqman assay in the 7900 Real Time PCR System (Applied Biosystems) using synthesized primer-probe pairs (IDT, Coralville, Iowa), reaction buffer and Immolase DNA polymerase (Bioline, Taunton, Mass.). The reaction mix was contained in a total volume of 10 μl and the reaction condition was an initial cycle of 95° C. for 10 min, then 40 cycles of 95° C. for 15 s and 60° C. for 1 min. All data were normalized to the internal standard, RPL4 mRNA for pig airway samples and SFRS9 mRNA for human airway samples. Absolute quantification of an mRNA target sequence within an unknown sample was determined by reference to a standard curve. The standard curve was based on the real-time PCR amplification of standard amounts of the specific gene in a control NC1 cDNA.
(§5) Wortmannin was purchased from Sigma (St. Louis, Mo.) as a ready to use solution. […] Monensin was purchased from Sigma (St. Louis, Mo.) and was dissolved in water. For experiments with drugs, the cells were pre-treated with drugs for 6 h usually at a concentration that was used in the Cmap study (Lamb J et al., The connectivity map: Using gene-expression signatures to connect small molecules, genes, and disease. Science 2006; 313(5795):1929-1935) or in other published studies. After the drug treatment, the cells were transfected with siRNA as described before.

For data set [3], the system named is HPRT mRNA. The data set is described as follows: Pretreatment of well differentiated pig airway epithelia before HPRT siRNA transfection, qPCR. To be noted: for reduction in HPRT mRNA levels: 6 h drug pretreatment at Cmap or literature concentration, then siRNA-Transductin 24 h (data not shown); for silencing of HPRT mRNA after pretreatment: well differentiated PAE, KGF 50 ng/ml 24 h, EGTA 6 mM 30 m, LLnL 40 μM 24 hrs, then 250 nM HPRT siRNA with RNAiMAX or Transductin. Here is the method:
as §3, §4, §5

The test system of data set [4] is IL-8. The data set is described as follows: IL-8 siRNA transfection of poorly differentiated pig airway epithelia (2 and 5 days old), qPCR. To be noted: for silencing of IL-8: 250 ng siRNA with Transductin, 24 h (FIG. 11a); for knockdown of IL-8: poorly differentiated pig airway cultures, siRNA 250 ng, 24 h (FIG. 9a). Here is the method: as §3
as §4, with “cDNA. PCR efficiency for all reactions was within the acceptable margin of 90-110%. All the results of the samples were presented as remaining mRNA level in comparison to the mRNA level in the control samples (NC1), which was normalized to 100%.” for “cDNA.”

Data set [5] relates to CFTR. The experiment in a line: LY-294002 pretreatment of human airway cells before CFTR siRNA transfection, qPCR. Conditions: siRNA with Transductin, 24 h, vs nontargeting control (FIG. 12b). The arrangement: dose or concentration left out as unconfirmed. Here is the method: as §1, §2
(§6) Wortmannin was purchased from Sigma (St. Louis, Mo.) as a ready to use solution. […]

The subject of data set [6] is SIN3A. The data set is described as follows: LY-294002 pretreatment of human airway cells before SIN3A siRNA transfection, qPCR. The arrangement: dose or concentration left out as unconfirmed. To be noted: siRNA with Transductin, 24 h, vs nontargeting control (FIG. 12a). The protocol:
as §1, §2, §6

In data set [7] the test system is human airway epithelia. The data set is described as follows: Confocal imaging of DIG-labeled siRNA uptake in human airway epithelia. Conditions: cells transfected with DIG-siRNA, fluorescent images, species not stated (data not shown). Here is the method:
The primary human airway epithelia grown at air-liquid interface were transfected with the DIG-labeled siRNA at a concentration of 250 ng/ml after complexing with Transductin. The transfection mixture was left on the apical surface for 2 h. At the end of this period, the cells were fixed in 2% formaldehyde, permeabilized in 0.2% Triton-x-100 and blocked in 1% BSA for 1 h. The cells were then stained with mouse antibody to DIG (Roche Biochemicals) for 1 h followed by either Alexa 488 labeled goat anti-mouse secondary antibody for 1 h followed by Alexa 488 labeled rabbit […] antibody (Invitrogen) for 1 or in some cases with Alexa 564 goat anti-mouse secondary antibody for 1 h. The cells were finally stained with nuclear stain, ToPro 3 for 10 minutes. The filter, containing the cells, was removed from the culture insert by cutting the edges with razor blade and then mounted onto a slide by the use of Vectashield. The slide was visualized by confocal microscopy.

Where a SMILES comes first, the peptide text is derived from it. [ ]: non-standard residue; d: D form. Nle = CCCC[C@H](N)C(=O)O; d = 2'-deoxy (DNA); r = 2'-OH (RNA); {P} = phosphate

Turning to “ssHPRT: Dicer-substrate siRNA against pig HPRT, SEQ ID NO: 1 and 2 (chain 1 CCAGUAAAGUUAUCACAUGUUCUAG; chain 2 CUAGAACAUGUGAUAACUUUACUGNGG; chemistry not fully specified)”, the “decrease of targeting mRNA (HPRT)” value in data set [1] is recorded as “more than 90%”.

Regarding `O=S(=O)(c1cccc2cnccc12)N1CCCNCC1` [fasudil], the “reduction in HPRT mRNA levels” value in data set [2] (human epithelia) and in data set [3] (pig epithelia) was “no reduction” throughout.

With “IL-8 1098: Dicer-substrate siRNA against pig IL-8, SEQ ID NO: 5 and 6 (chain 1 GGCAAAUUGUUAAACGAACAGAATA; chain 2 UAUUCUGUUCGUUUAACAAUUUGCCAA; chain 1: sugars from the 5' end r23 d2, 5' {P}, backbone not given here; chain 2: RNA, backbone not given here)”, the “silencing of IL-8” value in data set [4] (2-day old pig airway epithelia) is “Silencing of IL-8 is seen”; in data set [4] (5-day old pig airway epithelia) it was “not in 5-day old epithelia”. The “knockdown of IL-8” value in data set [4] is given as “Knockdown of IL-8 is seen”.

In the case of `CC(=O)O[C@H]1C(=O)[C@@]2(C)[C@H]([C@H](OC(=O)c3ccccc3)[C@]3(O)C[C@H](OC(=O)[C@H](O)[C@@H](NC(=O)c4ccccc4)c4ccccc4)C(C)=C1C3(C)C)[C@]1(OC(C)=O)CO[C@@H]1C[C@@H]2O` [paclitaxel], the “reduction in HPRT mRNA levels” value in data set [2] (human epithelia) and in data set [3] (pig epithelia) was “no reduction” in each case.

For the compound `COC[C@H]1OC(=O)c2coc3c2[C@@]1(C)C1=C(C3=O)[C@@H]2CCC(=O)[C@@]2(C)C[C@H]1OC(C)=O` [wortmannin], the “decrease in HPRT mRNA levels” value is on record as “about 20%” in data set [2] (human airway cells, 10 nM pretreatment) and ~30% in data set [2] (human airway cells, 40 nM pretreatment).

Take `O=C1CC[C@@]2(O)[C@H]3Cc4ccc(O)c5c4[C@@]2(CCN3CC2CC2)[C@H]1O5` [naltrexone]: the “reduction in HPRT mRNA levels” value in data set [2] (human epithelia) and in data set [3] (pig epithelia) was “no reduction” in each case.

For `O=C(O)CN(CCOCCOCCN(CC(=O)O)CC(=O)O)CC(=O)O` [EGTA], the “silencing of HPRT mRNA after pretreatment” value in data set [3] is reported as “did not result in silencing”.

As for `CCCC[C@@H](C=O)NC(=O)[C@H](CC(C)C)NC(=O)[C@H](CC(C)C)NC(C)=O` [LLnL, N-Acetyl-L-Leucyl-L-Leucyl-L-Norleucinal] (Ac-Leu-Leu-[Nle]-aldehyde), the “silencing of HPRT mRNA after pretreatment” value in data set [3] is recorded as “no effect on silencing”.

`C=C1CC[C@H](O)C/C1=C/C=C1\CCC[C@]2(C)[C@@H]([C@H](C)/C=C/[C@H](C)C(C)C)CC[C@@H]12` [ergocalciferol]: the “reduction in HPRT mRNA levels” value in data set [2] (human epithelia) and in data set [3] (pig epithelia) was “no reduction” each time.

Regarding `O=c1cc(N2CCOCC2)oc2c(-c3ccccc3)cccc12` [LY-294002, 2-morpholin-4-yl-8-phenylchromen-4-one], the “reduction in mRNA levels of CFTR” value in data set [5] was 20%. Besides, the “range of silencing effects (inhibition)” value in data set [2] (human airway cells, several donors (data not shown)) is listed as 10-55%; in data set [3] (pig airway cells, several donors (data not shown)), 10-20%. Also, the “silencing of HPRT” value is reported as “about 40%” in data set [2] (human epithelia, 10 μM for 6 h apically, vs nontargeting control (FIG. 5a)) and “about 20%” in data set [3] (pig epithelia, 10 μM for 6 h apically, vs nontargeting control (FIG. 5b)). In data set [6], the “reduction in mRNA levels of SIN3A” value is listed as 25%. For the same compound, the siRNA uptake entry in data set [7] is “improved siRNA uptake”.

On to “IL-8 1466: Dicer-substrate siRNA against pig IL-8, SEQ ID NO: 7 and 8 (chain 1 UGAGUGUAACUAUAGAACAUUUACA; chain 2 UGUAAAUGUUCUAUAGUUACACUCACA; chain 1: sugars from the 5' end r23 d2, 5' {P}, backbone not given here; chain 2: RNA, backbone not given here)”, for which the results for the “silencing of IL-8” value in data set [4] (2-day old pig airway epithelia) and in data set [4] (5-day old pig airway epithelia) were “Silencing of IL-8 is seen” and “not in 5-day old epithelia”, respectively. Moreover, the “knockdown of IL-8” value in data set [4] is listed as “Knockdown of IL-8 is seen”.

Values taken from patent US9272016B2, “Methods to enhance RNAi oligonucleotide delivery to respiratory epithelial cells” (University of Iowa Research Foundation, priority 2012, dated 2016).
